Measured values: patent US20230227406A1, “MODULATORS OF E3 LIGASES” (Rekindle Therapeutics Inc., priority 2020, published 2023)

Assays:
WWP1 [1] = target: T1, WWP1 (Homo sapiens, UniProt Q9H0M0); test: WWP1 MALDI-MS ubiquitin depletion assay (auto-ubiquitination); assay type: biochemical; details: 30 min pre-incubation, 90 minutes at 37° C.
T1 construct: purchased Ubiquigent 63-0034-025/30033/D
Procedure: Modulators designed in these ways were tested for HECT domain E3 ligase activity in a MALDI TOF assay of auto-ubiquitination (De Cesare et al, Cell Chem. Biol, 2018, 25, 1117)
UBE1 (E-305 Boston Biochem), UBE2D1 (E2-616 Boston Biochem), WWP1 (Ubiquigent #63-0034-025/30033/D), ubiquitin variants (Boston Biochem; ubiquitin: U-100H; WT-His6-Ub: U-530; K27R-His6-Ub:UM-HK27R; K27O-His6-Ub: UM-HK27O), alpha-cyano-4-hydroxycinnamic acid (CHCA), ATP, trifluoroacetic acid (Millipore Sigma, St. Louis, Mo.), 384-well round-bottom polypropylene microplates (781280, Greiner, Stonehouse, UK), 384-well Anchorchip MALDI targets and Peptide Calibration Standard II (Bruker Daltonics, Billerica, Mass.).
Protocol: The WWP1 ubiquitin depletion assay consists of recombinant UBE1 (5 nM), UBE2D1 conjugating enzyme (60 nM) and WWP1 ligase (50 nM) in a 10 mM HEPES pH 8.0 containing 0.1 mg/mL BSA, 10 mM MgCl2, 1 mM ATP and 1500 nM ubiquitin. Screening was performed by dispensing 3.5 μL of an enzyme solution containing UBE1 (10 nM), UBE2D1 (120 nM), WWP1 (100 nM), ubiquitin ([…]) to a 384-well round bottom polypropylene plates followed by incubation at 37° C. for 30 min. Reactions were initiated by the addition of 3.5 μL of an ATP solution (2000 nM) then incubated at 37° C. for 90 minutes before being quenched by the addition of 5 μL of a 50 mM EDTA solution containing 750 nM of a ubiquitin labelled with a histidine expression tag (m/z=9460.0 Da).
For detection of ubiquitin and the ubiquitin-6His internal standards, 50 nL of quenched reaction was dispensed onto a 384-well Anchorchip MALDI target plate (Bruker) pre-coated with a uniform layer of CHCA crystals immediately followed by 200 nL of a 3 mg/mL CHCA matrix solution (6 mg of CHCA dissolved in 0.7 mL of 100% ethanol and 1.3 mL of 0.31% aqueous TFA) using a TTP Labtech Mosquito liquid handler. Spectra for all reactions were acquired on a Bruker AutoFlex II in positive linear TOF mode from 1000 laser shots with ion suppression below 4000 Da. Spectra were analyzed for response using a centroid peak-fitting algorithm to quantify ubiquitin (m/z=8564.0 Da) and ubiquitin-6His (m/z=9460.0 Da) followed taking the ratio of intensities of ubiquitin and the ubiquitin-6His internal standard.
For compound screening, 140 nL of diluted compound in 100% DMSO was added to the WWP1 enzyme solution and pre-incubated for 30 minutes prior to reaction initiation.

DU-145 cells = test: Cellular proliferation assay (MTS) in DU-145 cells; assay type: cell-based; details: Homo sapiens, 72 hours of incubation, read-out: IC50 values for selected compounds in DU-145 cells
Procedure: DU-145 cells were trypsinized, counted via Trypan blue method and resuspended in DMEM complete medium (10% FBS with Pen-strep antibiotics) as described in Lieu et al, Mol Cel Endorinol, 87:19-28, 1992. Cells were seeded at a density of 100 cells per well in 1001 volume of 96-well cell culture plate and were incubated overnight at 37° C. in 5% CO2 incubator. The next day, cells were given fresh media and the test compounds were added in different concentrations. After 72 hours of incubation, MTS reagent (procured from Promega) was added to the cells and they were incubated for an additional 2 hours. Finally, the plates read in the absorbance mode at 490 nm using an ELISA plate reader (Perkin Elmer Victor X3 plate reader). The % growth values were calculated as [(T−T0)/(C−T0)]×100, where T0 is the OD of cells at the time of compound addition, C is the vehicle control, T is the OD of the test concentrations at 72 hours. Percentage inhibition values were calculated using 100−([(T−T0)/(C−T0)]×100). IC50 values were calculated in graph pad prism software using dose response curve nonlinear regression method.

PD-L1 [2] = test: Western blot of PD-L1 in Hs578T cells; assay type: cell-based, human; details: 48 hours, indicated concentrations of compound
Procedure: Hs578T cells (human triple negative breast cancer) were treated with the indicated concentration of COMPOUND 1 for 48 hours prior to harvesting. The “0” concentration is DMSO only (0.5%, same as was used for compound doses). […] Analysis occurred via western blot using the indicated antibodies. Quantification by densitometry of the bands from the western blot are presented for PD-L1/Vinculin (loading control) in the absence of interferon gamma, and glycosylated/non-glycosylated PD-L1 in the presence of interferon gamma.
(§1) The data presented here are consistent with the previous replicate in Hs578T cells, and the observation is preserved in another TNBC cell line, BT-20. COMPOUND 1 increases PD-L1 levels and the glycosylated PD-L1/non-glycosylated PD-L1 ratio. Methods are the same as the previous replicate, using the indicated doses.
Hs578T cells (human triple negative breast cancer) were treated with the indicated concentration of COMPOUND 6 for 48 hours before harvesting. The “0” concentration is DMSO only (0.5%, same as was used for compound doses). […] Analysis occurred via western blot using the indicated antibodies. PD-L1 protein levels were reduced relative to the vinculin loading control upon compound treatment. This effect is observed in the presence and absence of interferon gamma (IFN, 25 ng/mL in cell culture media during the drug treatment).
Hs578T cells (human triple negative breast cancer) were treated with the indicated concentration of COMPOUND 7 for 48 hours prior to harvesting. The “0” concentration is DMSO only (0.5%, same as was used for compound doses). […] Analysis occurred via western blot using the indicated antibodies. PD-L1 protein levels were reduced relative to the vinculin loading control upon 319-02 treatment.
The data presented here are consistent with the previous replicate in Hs578T cells. COMPOUND 7 reduces the PD-L1/vinculin loading control ratio. Methods are the same as the previous replicate, using the indicated doses.
(§2) Hs578T cells (human triple negative breast cancer) were treated with the indicated concentration of COMPOUND 8 for 48 hours and then harvested. The “0” concentration is DMSO only (0.5%, same as was used for compound doses). […] Analysis occurred via western blot using the indicated antibodies.
PD-L1-APC (BD Biosciences) and a matched isotype control were used to visualize PD-L1 cell surface expression by flow cytometry (1:250 dilution). As shown by western blot, the knockdown of WWP1 yielded increased PD-L1 protein levels, including an increase in the glycosylated band.
Total RNA was isolated using an RNeasy kit from Qiagen.

[3] = test system: phosphorylated AKT and phosphorylated Ribosomal Protein S6; test: Western blot of AKT and S6 phosphorylation in Hs578T cells; assay type: cell-based, human; details: 48 hours, indicated concentrations
Procedure: Hs578T cells (human triple negative breast cancer) were treated with the indicated concentration of COMPOUND 1 for 48 hours prior to harvesting. The “0” concentration is DMSO only (0.5%, same as was used for compound doses). […] Analysis occurred via western blot using the indicated antibodies. Quantification by densitometry of the bands from the western blot are presented for phosphorylated AKT/Total AKT and phosphorylated Ribosomal Protein S6/Total Ribosomal Protein S6. COMPOUND 1 reduced both AKT and S6 phosphorylation relative to their respective total protein levels.
as §1, with “reduces the phospho-AKT/vinculin loading control” for “increases PD-L1 levels”, “phospho-S6/total S6 ratios.” for “the glycosylated PD-L1/non-glycosylated PD-L1 ratio.”
Hs578T cells (human triple negative breast cancer) were treated with the indicated concentration of COMPOUND 6 for 48 hours prior to harvesting. The “0” concentration is DMSO only (0.5%, same as was used for compound doses). […] Analysis occurred via western blot using the indicated antibodies.
The data presented here are consistent with the previous replicate in Hs578T cells. COMPOUND 6 reduces the phospho-AKT/vinculin loading control and phospho-S6/total S6 ratios. Methods are the same as the previous replicate, using the indicated doses.
Hs578T cells (human triple negative breast cancer) were treated with the indicated concentration of COMPOUND 7 for 48 hours before harvesting. The “0” concentration is DMSO only (0.5%, same as was used for compound doses). […] Analysis occurred via western blot using the indicated antibodies.
The data presented here are consistent with the previous replicate in Hs578T cells. COMPOUND 7 reduces the phospho-S6/vinculin loading control ratio. Methods are the same as the previous replicate, using the indicated doses.
as §2

WWP1 [4] = test: Western blot of WWP1 protein levels after siRNA, shRNA, ASO or interferon gamma; details: A549 and Hs578T cells, 25 ng/mL, 48 hours
PD-L1 [5] = test: Western blot of PD-L1 in multiple cancer cell lines after siRNA, shRNA or interferon gamma; assay type: cell-based, human; details: 25 ng/mL, 48 hours
Text: Relative to the vinculin loading control, interferon gamma upregulates PD-L1 protein levels within TNBCs shown to express PD-L1 at baseline.
Analysis occurred via western blot using the indicated antibodies.

WWP1 mRNA = test: qPCR of WWP1 mRNA in Du145 shRNA cell lines; details: vs empty vector control lines
SARS-CoV-2 = assay type: cell-based; details: Vero cells, 36 hours

T1 sequence (Q9H0M0 whole entry): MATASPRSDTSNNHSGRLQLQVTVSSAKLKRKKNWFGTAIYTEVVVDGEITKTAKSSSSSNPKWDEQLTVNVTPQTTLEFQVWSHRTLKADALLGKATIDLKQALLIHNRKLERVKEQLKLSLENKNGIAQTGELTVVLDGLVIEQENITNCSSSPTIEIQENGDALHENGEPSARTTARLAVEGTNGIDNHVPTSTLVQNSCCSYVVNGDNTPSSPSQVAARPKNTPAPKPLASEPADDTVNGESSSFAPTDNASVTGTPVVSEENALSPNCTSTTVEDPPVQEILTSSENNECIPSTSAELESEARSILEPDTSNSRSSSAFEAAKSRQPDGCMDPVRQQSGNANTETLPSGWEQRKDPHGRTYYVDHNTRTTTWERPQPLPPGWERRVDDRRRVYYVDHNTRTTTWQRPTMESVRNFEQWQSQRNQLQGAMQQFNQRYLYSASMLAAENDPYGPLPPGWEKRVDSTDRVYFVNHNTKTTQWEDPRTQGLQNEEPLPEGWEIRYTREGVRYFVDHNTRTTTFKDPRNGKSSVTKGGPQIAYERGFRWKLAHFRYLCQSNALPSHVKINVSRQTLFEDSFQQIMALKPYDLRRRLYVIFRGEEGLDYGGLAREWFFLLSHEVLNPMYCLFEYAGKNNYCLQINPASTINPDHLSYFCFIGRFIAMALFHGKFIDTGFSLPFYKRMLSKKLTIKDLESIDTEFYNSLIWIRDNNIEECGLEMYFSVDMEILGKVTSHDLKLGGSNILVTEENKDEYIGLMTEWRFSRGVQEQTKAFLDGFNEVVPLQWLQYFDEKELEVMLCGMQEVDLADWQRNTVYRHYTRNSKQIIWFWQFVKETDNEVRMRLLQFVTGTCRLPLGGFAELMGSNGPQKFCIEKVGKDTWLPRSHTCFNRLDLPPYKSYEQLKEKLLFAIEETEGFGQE

Row | IC50 (WWP1 [1]) [µM] | IC50 (DU-145 cells) [µM] | Molecule | further results
1 | 45 | 5.48 | C#CCNC(=O)c1ccc2c(Cc3c[nH]c4ccccc34)c(C)[nH]c2c1 [Compound 5, 3-((1H-indol-3-yl)methyl)-2-methyl-N-(prop-2-yn-1-yl)-1H-indole-6-carboxamide] | –
2 | 49 | 12 | Fc1cccc2[nH]cc(Cc3c[nH]c4cccc(F)c34)c12 [Compound 8, bis(4-fluoro-1H-indol-3-yl)methane] | PD-L1 levels (relative to vinculin loading control) (PD-L1 [2]): reduced; S6 phosphorylation (relative to total S6 or vinculin loading control) [3]: reduced
3 | ~300 | – | O=C(O)c1ccc2[nH]cc(Cc3c[nH]c4ccccc34)c2c1 [Compound 3, 3-((1H-indol-3-yl)methyl)-1H-indole-5-carboxylic acid] | –
4 | – | – | interferon gamma: interferon gamma, a stimulator of PD-L1 expression | WWP1 levels (WWP1 [4]): reduced; induced PD-L1 expression (PD-L1 [5]; MCF-7 cells (ER+)): not readily observable; PD-L1 protein levels relative to vinculin (PD-L1 [5]; TNBCs (Hs578T, BT-20)): upregulates; KD (reduction) of WWP1 mRNA by qPCR (WWP1 mRNA): 15%
5 | – | – | OCc1c[nH]c2ccccc12 [Compound I3C, Indole-3-carbinol] | impact on SARS-CoV-2 infection (SARS-CoV-2; 2.5 μM): little impact on infection; inhibition of SARS-CoV-2 infection (SARS-CoV-2; 5 μM): > 75%
6 | 29 | 0.08 | O=C(O)c1ccc2c(Cc3c[nH]c4ccccc34)c[nH]c2c1 [Compound 4, 3-((1H-indol-3-yl)methyl)-1H-indole-6-carboxylic acid] | –
7 | 26 | – | N#Cc1cc(NC(=O)c2ccc3c(c2)c(C=O)cn3-c2ccccc2)ccn1 [Compound 2, N-(2-cyanopyridin-4-yl)-3-formyl-1-phenyl-1H-indole-5-carboxamide] | –

Row | Molecule | IC50 (WWP1 [1]) [µM] | IC50 (DU-145 cells) [µM] | further results
8 | Fc1ccc2[nH]cc(Cc3c[nH]c4ccc(F)cc34)c2c1 [Compound 9, bis(5-fluoro-1H-indol-3-yl)methane] | 66 | – | –
